US7538092B2, “Pharmaceutically active oligosaccharide conjugates” (Fresenius Kabi Deutschland GmbH, priority 2002, dated 2009)

Assay: Determination of solubility in water / PBS
Assay type: physicochemical
Settings: only using solution with extreme pH values

C[C@@H]1[C@H](O)[C@@H](C)/C=C/C=C/C=C/C=C/C=C/C=C/C=C/[C@H](O[C@@H]2O[C@H](C)[C@@H](O)[C@H](N)[C@@H]2O)C[C@@H]2O[C@](O)(C[C@@H](O)C[C@@H](O)[C@H](O)CC[C@@H](O)C[C@@H](O)CC(=O)O[C@H]1C)C[C@H](O)[C@H]2C(=O)O [Amphotericin B]
water solubility: around 0.1 mg per ml
